From patent US9109048B2, “Inhibition of tumor growth” (priority 1998, dated 2015)
≈ marks a conversion by molar mass, not a printed value. Square brackets hold non-standard residues; d marks the D form. Bip = N[C@@H](Cc1ccc(-c2ccccc2)cc1)C(=O)O

Tests used:
C26 colon carcinoma = experiment: Murine C26 colon carcinoma model; format: in vivo, Balb/c mice
Experimental: The antitumoral activity of the peptide, Ad-LFB 14-31 A2,3,6,10,17,F7,R4,K11,L14-NH2, (NDDO1) was tested in a murine C26 colon carcinoma model established in syngenic Balb/c mice. C26 cells (5×10^6 cells in 50 μl) cells were inoculated subcutaneously on the abdomen of the mice (3 animals) and grown into proper size (20-30 mm^2) before treatment start. At day 7 the tumors were treated intra-tumorally with 0.5 mg/50 μl peptide once a day for three consecutive days and the progression was followed. […] In this mouse C26 tumor cells (5×10^6 cells in 50 μl) were re-inoculated subcutaneously three weeks after peptide treatment.

[1] = format: physicochemical
From the text: Peptide W3714, with three additional tryptophan residues (a total of five tryptophan residues in the peptide), has decreased activity. […] This has been physically observed during MIC testing procedures when the peptide tended to precipitate at high concentrations.

Meth A fibrosarcoma = experiment: Tumor regression, murine Meth A fibrosarcoma; format: in vivo, mice; conditions: injected intratumorally on day 7 and day 10
Experimental: Specific pathogen-free CB6F1 (Balb/c×C57 BL/6) female mice of about 8 weeks of age were obtained from Charles River (Germany). The mice were kept on standard laboratory chow and water. Tumor bearing mice were serologically screened for viral (LDH, CMV) and mycoplasmic infection and in all cases tested negative.
After a single inoculation of 5×10^7 viable Meth A cells, different LF peptides were injected intratumorally (LFB-14-31, LFB 17-31 Pmc, 500 μg in a 50 μl dose; LFB 17-31, 1000 μg in a 50 μl dose), on day 7 and day 10. LFB 14-31 was also injected intraperitoneally (PBI), 500 μg/ml. Saline only was injected in the control mice (50 μl) (K1,K2,K3). The tumor diameter (mean of transversal and longitudinal) were measured with an electronic calipper.

[2] = tested on: human promyelotic leukemia cell line HL 60; experiment: Cytotoxicity on HL 60 cells, MTT; format: cell-based; conditions: FIG. 7, concentrations tested
Experimental: HL 60 cells, 1×10^4 were incubated with peptides 50, 30, 20, 10, 5, 1 μg, 1000-20 μg/ml in 2 hours and coloured with MTT;

[3] = tested on: Staphylococcus aureus ATCC 25923; experiment: MIC (minimum inhibitory concentration) test, microdilution; format: cell-based; conditions: Table 1, value in parentheses
In short: (§1)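 Standard broth microdilution MIC in 1% Bacto Peptone water, inoculum 2×10^6 CFU/ml of mid-log-phase bacteria grown in 2% peptone water. Run in triplicate; peptide concentration in wells verified by HPLC.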

[4] = tested on: Escherichia coli ATCC 25922; experiment: as above; format: cell-based; conditions: Table 1, value in parentheses
In short: as §1

[5] = tested on: A20 B-cell lymphoma tumor; experiment: Re-inoculation of A20 cells after successful peptide treatment; format: in vivo, Balb/c mice; conditions: no further administration of peptides
From the text: b) Mice in which a A20 B-cell lymphoblast tumor had successfully been eradicated as described above were re-inoculated with 5×10^6 cells of A20 B-cell lymphoma tumor. Untreated mice served as a negative control. No further administration of peptides or any other anti-tumor agents took place.

Meth A tumor cells = experiment: Reinoculation of Meth A cells after successful treatment; format: in vivo, mice; conditions: reinoculation 1 month after successful treatment, no further treatment
[6] = tested on: Meth A cells (murine sarcoma cell line); experiment: Cytotoxicity on Meth A cells, MTT method
Experimental: Peptide solutions (0.1 ml) were added and the plates incubated at 37° C. for 30 minutes, 4 hours or 24 hours. The cytotoxicity was measured using the MTT method (Mosmann et al., J. Immunol. (1986) 136, 2348-2357).
Cells in the growth phase were harvested and washed in fresh medium and injected subcutaneously into the abdominal region of the mice.
The cytotoxic effect of the peptides on different murine and human tumor cells were measured using the MTT method (Mosmann et al., J. Immunol. (1986) 136, 2348-2357).
MTT is a soluble tetrazolium salt yielding a yellow solution when prepared in media or salt solutions lacking phenol red. Dissolved MTT is converted to an insoluble purple formazan by cleavage of the tetrazolium ring by dehydrogenase enzymes. This water insoluble formazan can be solubilized using isopropanol or other solvents and the dissolved material is measured spectrophotometrically. The absorbance was measured as a function of concentration of converted dye.
Cells were maintained in […] medium containing 10% FBS, 1% L-glutamine and 0.1% penicillin and streptomycin. Cells to be used in the assay were grown to confluency, trypsinated and split to single cell suspension, counted and centrifuged at 1500 rpm for 10 min. […][…] of cell suspension was transferred to each well on a 96-well microtiter plate. The cells were stimulated by adding […] of various concentrations of peptides diluted with assay medium to each well. The final concentrations of peptide were for example: 5, 10, 20, 40, 60, 80, 100, and 200 mg/ml. […] As a negative control only medium was added to the cells, and as a positive control (100% killing) 1% triton X-100 was added. Following an incubation period of 4 h., 20 ml MTT dissolved in PBS at a concentration of 5 mg/ml was added to each well, and the plate was incubated further for 2 h. 130 ml of the supernatant were then removed and […] acid alcohol (0.04-0.1 N HCl in isopropanol) added to each well to dissolve the dark blue crystals. The plate was placed on a shaker for 1 h and read spectrophotometrically at 590 nm in a microtiterplate reader using the Softmaxâ program.

[7] = tested on: A20 B-cell lymphoblastoma; experiment: Adoptive transfer of spleen cells from cured mice; format: in vivo, Balb/c mice; conditions: donors cured with the peptide; versus naive donors
Experimental: Syngenic Balb/c mice were selected as a model system to investigate the long-term anti-tumor immunity conferred by an initial treatment with a lytic peptide (H2N-WKKWdipKKWK-COOH—Mod 39 (SEQ ID NO: 42)) against A20 B-cell lymphoblastoma. Tumour cells (5×10^6) were inoculated subcutaneously on the abdomen of the mice and grown into proper size (20-30 mm^2) before treatment start. The mice were treated intra-tumorally with 0.5 mg/50 μl peptide once a day for three consecutive days and the progression was followed. Mice that were successfully treated were selected as donors (treated donor) for adoptive transfer of spleen cells, 3 weeks after tumor eradication.
Day 1—Naive acceptor mice were subjected to a Total Body Irradiation (TBI) of 500 cGy in preparation for receiving adoptive transfer of immune cells from spleen donors.
Day 2—Single-cell suspensions of spleenocytes depleted of red blood cells from treated donor mice and naïve mice were prepared as previously described (Ward, B. A. et al., J. Immunology Aughust 1988, vol 141 p 1047), except that sterile H2O was used instead of ammonium chloride to eliminate red blood cells.
Donor spleen cells (approximately 40 million) were injected i.v. into the tail vein of acceptor mice according to the methods described in Bogen B. et al., Eur J Immunology, May 1983, vol 13(5), pages 353-359. […]

## Ad-LFB 14-31 A2,3,6,10,17,F7,R4,K11,L14-NH2 [NDDO1]
C26 colon carcinoma; 3 animals, 0.5 mg/50 μl intra-tumorally once a day for three days
  primary effect on C26 colon carcinoma: In one mouse full tumor regression was obtained
C26 colon carcinoma; re-inoculated three weeks after peptide treatment, no further treatment
  effect of re-inoculating C26 cells: A regression of the tumor after an initial growth was obtained without any further treatment

## H-FKWRRWWWRMKKLWA-OH [LFBW3,7,14, H2N-Phe-Lys-Trp-Arg-Arg-Trp-Trp-Trp-Arg-Met-Lys-Lys-Leu-Trp-Ala-COOH]
[1]
  solubility in aqueous solutions: less soluble in aquous solutions

## CSCC[C@H](NC(=O)[C@H](CCCNC(=N)N)NC(=O)[C@H](Cc1c[nH]c2ccccc12)NC(=O)[C@H](CCC(N)=O)NC(=O)[C@H](Cc1c[nH]c2ccccc12)NC(=O)[C@H](CCCNC(=N)N)NC(=O)[C@H](CCCNC(=N)N)NC(=O)[C@H](CSCNC(C)=O)NC(=O)[C@H](CCCCN)NC(=O)[C@@H](N)Cc1ccccc1)C(=O)N[C@@H](CCCCN)C(=O)N[C@@H](CCCCN)C(=O)N[C@@H](CC(C)C)C(=O)NCC(=O)N[C@@H](C)C(=O)O [LFB 17-31, H2N-Phe-Lys-Cys-Arg-Arg-Trp-Gln-Trp-Arg-Met-Lys-Lys-Leu-Gly-Ala-COOH]
Meth A fibrosarcoma
  effect on Meth A tumors: induced regression of the Meth A tumors
[2]
  cytotoxic effect on human HL 60 cells: no cytotoxic effect
[3]
  Minimum inhibitory concentration (MIC) S. aureus ATCC 25923: 50 µM (≈ 103 µg/mL)
[4]
  Minimum inhibitory concentration (MIC) E. coli ATCC 25922: 20 µM (≈ 41.3 µg/mL)

## H2N-WKKWdipKKWK-COOH [L-Mod 39]
[5]
  time until the re-inoculated A20 tumor completely disappeared: 10 days

## H2N-FKCRRWQWRMKKLGAPSITCVRRAF-COOH (H-FKCRRWQWRMKKLGAPSITCVRRAF-OH; ends and bridges not checked) [Cyclic LFB, reference compound]
Meth A tumor cells
  tumor establishment after reinoculation of Meth A cells: some storm of adaptive immunity is shown
[5]
  tumor growth after re-inoculation of A20 cells: no further growth occurred
[6]; Meth A cells 1×10^4/ml, 4 h incubation (FIG. 2)
  concentration at which Meth A cells were effectively killed: higher than 0.8 mg/ml
[6]; at concentrations higher than 0.8 mg/ml
  Meth A cells killed: more than 99%

## H2N-KAAKKAbipKAAKAbipKKAA-COOH (H-KAAKKA[Bip]KAAKA[Bip]KKAA-OH; SMILES C[C@H](NC(=O)[C@H](C)NC(=O)[C@H](CCCCN)NC(=O)[C@H](CCCCN)NC(=O)[C@H](Cc1ccc(-c2ccccc2)cc1)NC(=O)[C@H](C)NC(=O)[C@H](CCCCN)NC(=O)[C@H](C)NC(=O)[C@H](C)NC(=O)[C@H](CCCCN)NC(=O)[C@H](Cc1ccc(-c2ccccc2)cc1)NC(=O)[C@H](C)NC(=O)[C@H](CCCCN)NC(=O)[C@H](CCCCN)NC(=O)[C@H](C)NC(=O)[C@H](C)NC(=O)[C@@H](N)CCCCN)C(=O)O) [Peptide C12]
[5]
  time until the re-inoculated A20 tumor completely disappeared: 6 days

## H2N-WKKWdipKKWK-COOH [Model 39]
[7]
  rejection of implanted A20 tumors in acceptors of spleen cells from cured mice: able to reject implanted tumors
